In patent publication US20240016773A1, “COMPOSITIONS AND METHODS FOR DIAGNOSIS AND TREATMENT OF CONDITIONS RELATED TO AGING” (EPITRACKER, INC., priority 2018, published 2024):

How the values were obtained:
[1] = system: HDF3CGF system: dermal fibroblasts (IFNγ, TNFα, IL-1β, EGF, bFGF, PDGF-BB); test: BioMAP Diversity PLUS, HDF3CGF system; assay type: cell-based, human; details: HDF3CGF
Source text: (§1) The Diversity PLUS panel allows test agent characterization in an unbiased way across a broad set of systems modeling various human disease states. These systems are designed to model complex human tissue and disease biology of the vasculature, skin, lung, and inflammatory tissues. Quantitative measurements of 148 biomarker activities across this broad panel, along with comparative analysis of biological activities from known bioactive agents, were used to predict and compare the efficacy and function of each selected compound at four concentrations (740 nm and 2.2, 6.7 and 20 μM).
(§2) BioMAP systems are constructed with one or more primary cell types from healthy human donors, with stimuli (such as cytokines or growth factors) added to capture relevant signaling networks that naturally occur in human tissue or pathological conditions. Vascular biology is modeled in both a Th1 (3C system) and a Th2 (4H system) inflammatory environment, as well as in a Th1 inflammatory state specific to arterial smooth muscle cells (CASM3C system). Additional systems recapitulate aspects of the systemic immune response including monocyte-driven Th1 inflammation (LPS system) or T cell stimulation (SAg system), chronic Th1 inflammation driven by macrophage activation (lMphg system) and the T cell-dependent activation of B cells that occurs in germinal centers (BT system). The BE3C system (Th1) and the BF4T system (Th2) represent airway inflammation of the lung, while the MyoF system models myofibroblast-lung tissue remodeling. Lastly, skin biology is addressed in the KF3CT system modeling Th1 cutaneous inflammation and the HDF3CGF system modeling wound healing.
(§3) Each test agent generates a signature BioMAP profile that is created from the changes in protein biomarker readouts within individual system environments. Biomarker readouts (7-17 per system) are selected for therapeutic and biological relevance, are predictive for disease outcomes or specific drug effects and are validated using agents with known mechanism of action (MoA). Each readout is measured quantitatively by immune-based methods that detect protein (e.g., ELISA) or functional assays that measure proliferation and viability. BioMAP readouts are diverse and include cell surface receptors, cytokines, chemokines, matrix molecules and enzymes. In total, the Diversity PLUS panel contains 148 biomarker readouts that capture biological changes that occur within the physiological context of the particular BioMAP system. Specific BioMAP activities have been correlated to in vivo biology, and multiparameter BioMAP profiles have been used to distinguish compounds based on MoA and target selectivity across diverse physiological systems.
(§4) Activated BioMAP systems were incubated with each compound for 24 to 72 hours. Protein-based biomarkers from activated cell systems were measured and compared with non-treated control systems.

[2] = system: BF4T system: bronchial epithelial cells, dermal fibroblasts (IL-4, TNF-α); test: BioMAP Diversity PLUS, BF4T system; assay type: cell-based, human
Source text: as §1
(§5) BioMAP systems are constructed with one or more primary cell types from healthy human donors, with stimuli (such as cytokines or growth factors) added to capture relevant signaling networks that naturally occur in human tissue or pathological conditions. Vascular biology is modeled in both a Th1 (3C system) and a Th2 (4H system) inflammatory environment, as well as in a Th1 inflammatory state specific to arterial smooth muscle cells (CASM3C system). […]
as §3, with “Specific BioMAP activities have been correlated to in vivo biology, and multiparameter BioMAP profiles have been used to distinguish compounds based on MoA and target selectivity across diverse physiological systems.” left out
as §4

[3] = system: BT system: peripheral blood mononuclear cells, B cells (α-IgM, TCR ligands); test: BioMAP Diversity PLUS, BT system; assay type: cell-based, human
Source text: as §1, §2, §3, §4

[4] = system: CASM3C system: coronary artery smooth muscle cells (IL-1β, TNFα, IFNγ); test: BioMAP Diversity PLUS, CASM3C system; assay type: cell-based, human; details: 2.2 μM
Source text: as §1, with “μM). […]” for “μM).”
(§6) Each test agent generates a signature BioMAP profile that is created from the changes in protein biomarker readouts within individual system environments. Biomarker readouts (7-17 per system) are selected for therapeutic and biological relevance, are predictive for disease outcomes or specific drug effects and are validated using agents with known mechanism of action (MoA). Each readout is measured quantitatively by immune-based methods that detect protein (e.g., ELISA) or functional assays that measure proliferation and viability. BioMAP readouts are diverse and include cell surface receptors, cytokines, chemokines, matrix molecules and enzymes. […]

[5] = system: twelve different human primary cell systems mimicking various disease states; test: BioMAP Diversity PLUS panel, twelve human primary cell systems (summary by disease); assay type: cell-based; design: key: x: Significantly reduced cell-based biomarkers relevant to specific diseases and conditions
Source text: As a proof of concept, 14 compounds were selected from our compound library based on predicted efficacy in lowering inflammation in dolphins. Pure synthetic forms of these compounds were screened for cell-based activities (relevant to multiple aging-associated diseases and diseases that may impact longevity) using twelve different human primary cell systems mimicking various disease states (TABLE 4—description of primary human cell systems used to screen selected compounds in library).
as §1, §2, §3, §4

[6] = system: BE3C system: bronchial epithelial cells (IL-1β, IFNγ, TNFα); test: BioMAP Diversity PLUS, BE3C system; assay type: cell-based, human
Source text: as §1, §5
as §6, with “enzymes. In total, the Diversity PLUS panel contains 148 biomarker readouts that capture biological changes that occur within the physiological context of the particular BioMAP system.” for “enzymes.”
as §4

[7] = system: SAg system: venular endothelial cells, peripheral blood mononuclear cells (TCR ligands); test: BioMAP Diversity PLUS, SAg system; assay type: cell-based, human
Source text: as §1, §2, §3, §4

[8] = system: /Mphg system: macrophages, venular endothelial cells (TLR2 ligand); test: BioMAP Diversity PLUS, /Mphg system; assay type: cell-based, human; details: 20.0 μM
Source text: as §1, with “μM). […]” for “μM).”
as §6

[9] = system: LPS system: venular endothelial cells, peripheral blood mononuclear cells (TLR4 ligand); test: BioMAP Diversity PLUS, LPS system; assay type: cell-based, human
Source text: as §1, §2
as §6, with “enzymes. In total, the Diversity PLUS panel contains 148 biomarker readouts that capture biological changes that occur within the physiological context of the particular BioMAP system.” for “enzymes.”
as §4

CCCCCCC=CCCCCCCCCC(=O)O [10-heptadecanoate]
Significant log10 reduction vs nontreated controls: Macrophage colony-stimulating factor (M-CSF) ([1]; 6.7 μM): −0.1 log10
Significant log10 reduction vs nontreated controls: Vascular cell adhesion molecule 1 (VCAM-1) ([1]; 6.7 μM): −0.17 log10
Significant log10 reduction vs nontreated controls: Eotaxin 3 (CCL26) ([2]; 2.2 μM): −0.10 log10
Significant log10 reduction vs nontreated controls: Eotaxin 3 (CCL26) ([2]; 6.7 μM): −0.13 log10
Significant log10 reduction vs nontreated controls: Eotaxin 3 (CCL26) ([2]; 20.0 μM): −0.31 log10
Significant log10 reduction vs nontreated controls: Secreted interleukin 2 (IL-2) ([3]; 6.7 μM): −0.11 log10
Significant log10 reduction vs nontreated controls: Serum amyloid A [4]: −0.13 log10
Significantly reduced cell-based biomarkers relevant to: Allergy ([5]; Table 6): x
Significantly reduced cell-based biomarkers relevant to: Asthma ([5]; Table 6): x
Significantly reduced cell-based biomarkers relevant to: Autoimmunity ([5]; Table 6): x
Significantly reduced cell-based biomarkers relevant to: COPD ([5]; Table 6): x
Significantly reduced cell-based biomarkers relevant to: Hematological oncology ([5]; Table 6): x
Significantly reduced cell-based biomarkers relevant to: Pulmonary fibrosis ([5]; Table 6): x
Significantly reduced cell-based biomarkers relevant to: SLE ([5]; Table 6): x
Significantly reduced cell-based biomarkers relevant to: T-cell dependent B cell proliferation ([5]; Table 6): x
Significantly reduced cell-based biomarkers relevant to: Th2 type inflammation ([5]; Table 6): x
Significantly reduced cell-based biomarkers relevant to: Chronic inflammation ([5]; Table 7): x
Significantly reduced cell-based biomarkers relevant to: Psoriasis ([5]; Table 7): x
Significantly reduced cell-based biomarkers relevant to: Restenosis ([5]; Table 7): x
Significantly reduced cell-based biomarkers relevant to: Rheumatoid arthritis ([5]; Table 7): x
Significantly reduced cell-based biomarkers relevant to: Thl type inflammation ([5]; Table 7): x
Significantly reduced cell-based biomarkers relevant to: Fibrosis ([5]; Table 8): x
Significantly reduced cell-based biomarkers relevant to: Stromal biology in tumors ([5]; Table 8): x
Significantly reduced cell-based biomarkers relevant to: Vascular inflammation ([5]; Table 8): x

C=CCCCCCCCCC(=O)O [10-undecanoate]
Significant log10 reduction vs nontreated controls: Tissue plasminogen activator (tPA) ([6]; 2.2 μM): −0.08 log10
Significant log10 reduction vs nontreated controls: Tissue plasminogen activator (tPA) ([6]; 6.7 μM): −0.11 log10
Significant log10 reduction vs nontreated controls: Tissue plasminogen activator (tPA) ([6]; 20.0 μM): −0.12 log10
Significant log10 reduction vs nontreated controls: CD40 ([7]; 0.7 μM): −0.07 log10
Significant log10 reduction vs nontreated controls: CD40 ([7]; 2.2 μM): −0.14 log10
Significant log10 reduction vs nontreated controls: CD40 ([7]; 6.7 μM): −0.09 log10
Significant log10 reduction vs nontreated controls: CD40 ([7]; 20.0 μM): −0.11 log10
Significant log10 reduction vs nontreated controls: Macrophage colony-stimulating factor (M-CSF) ([1]; 0.7 μM): −0.11 log10
Significant log10 reduction vs nontreated controls: Macrophage colony-stimulating factor (M-CSF) ([1]; 2.2 μM): −0.07 log10
Significant log10 reduction vs nontreated controls: Secreted interleukin 10 (IL-10) [8]: −0.21 log10
Significant log10 reduction vs nontreated controls: Secreted prostaglandin E2 (PGE2) ([9]; 0.7 μM): −0.11 log10
Significant log10 reduction vs nontreated controls: Secreted prostaglandin E2 (PGE2) ([9]; 2.2 μM): −0.08 log10
Significant log10 reduction vs nontreated controls: Secreted prostaglandin E2 (PGE2) ([9]; 6.7 μM): −0.20 log10
Significant log10 reduction vs nontreated controls: CD40 ([9]; 20.0 μM): −0.11 log10
Significant log10 reduction vs nontreated controls: Secreted interleukin 17A (IL-17A) ([3]; 2.2 μM): −0.25 log10
Significant log10 reduction vs nontreated controls: Secreted interleukin 17A (IL-17A) ([3]; 20.0 μM): −0.20 log10
Significant log10 reduction vs nontreated controls: Tumor necrosis factor alpha (TNFα) ([3]; 20.0 μM): −0.12 log10
Significantly reduced cell-based biomarkers relevant to: Allergy ([5]; Table 6): x
Significantly reduced cell-based biomarkers relevant to: Asthma ([5]; Table 6): x
Significantly reduced cell-based biomarkers relevant to: Autoimmunity ([5]; Table 6): x
Significantly reduced cell-based biomarkers relevant to: Hematological oncology ([5]; Table 6): x
Significantly reduced cell-based biomarkers relevant to: SLE ([5]; Table 6): x
Significantly reduced cell-based biomarkers relevant to: T-cell dependent B cell proliferation ([5]; Table 6): x
Significantly reduced cell-based biomarkers relevant to: Atherosclerosis ([5]; Table 7): x
Significantly reduced cell-based biomarkers relevant to: Chronic inflammation ([5]; Table 7): x
Significantly reduced cell-based biomarkers relevant to: Metabolic diseases ([5]; Table 7): x
Significantly reduced cell-based biomarkers relevant to: Organ transplantation ([5]; Table 7): x
Significantly reduced cell-based biomarkers relevant to: Psoriasis ([5]; Table 7): x
Significantly reduced cell-based biomarkers relevant to: Restenosis ([5]; Table 7): x
Significantly reduced cell-based biomarkers relevant to: Rheumatoid arthritis ([5]; Table 7): x
Significantly reduced cell-based biomarkers relevant to: Thl type inflammation ([5]; Table 7): x
Significantly reduced cell-based biomarkers relevant to: Crohn's disease ([5]; Table 8): x
Significantly reduced cell-based biomarkers relevant to: Fibrosis ([5]; Table 8): x
Significantly reduced cell-based biomarkers relevant to: Hematological oncology ([5]; Table 8): x
Significantly reduced cell-based biomarkers relevant to: Pulmonary responses to respiratory infections ([5]; Table 8): x
Significantly reduced cell-based biomarkers relevant to: Sarcoidosis ([5]; Table 8): x
Significantly reduced cell-based biomarkers relevant to: Stromal biology in tumors ([5]; Table 8): x
